According to ChEMBL document CHEMBL3244039, “Antiviral activity of some beta-diketones. 2. Aryloxy alkyl diketones. In vitro activity against both RNA and DNA viruses” (1977):
Converted amounts (≈) assume the structure as drawn. The source made the active and inactive calls. The rule behind the calls is not given here.

Legend:
Equine rhinovirus = test: Antiviral activity against Equine rhinovirus assessed as inhibition of virus-induced cytopathic effect after 48 hrs by two-fold dilution method
Human alphaherpesvirus 2 [1] = test: Antiviral activity against Herpes simplex virus 2 assessed as inhibition of virus-induced cytopathic effect at 50 ug/ml after 72 hrs by two-fold dilution method; type: functional, organism-based
Human alphaherpesvirus 2 [2] = test: Antiviral activity against Herpes simplex virus 2 assessed as inhibition of virus-induced cytopathic effect after 72 hrs by two-fold dilution method; type: functional; conditions: Human alphaherpesvirus 2, 72 h
Human alphaherpesvirus 2 [3] = test: Antiviral activity against Herpes simplex virus 2 Curtis assessed as inhibition of virus-induced cytopathic effect at 37 degC after 72 hrs by two-fold dilution method; type: functional; conditions: Human alphaherpesvirus 2, Curtis
Human alphaherpesvirus 1 = test: Antiviral activity against Herpes simplex virus 1 Sheely assessed as inhibition of virus-induced cytopathic effect at 37 degC after 72 hrs by two-fold dilution method; type: functional; conditions: Human alphaherpesvirus 1, Sheely

Row | Structure (SMILES) | MIC (Equine rhinovirus) [µg/mL] | inhibition (Human alphaherpesvirus 2 [1]) | MIC (Human alphaherpesvirus 2 [2]) [µg/mL] | MIC (Human alphaherpesvirus 2 [3]) [µg/mL] | MIC (Human alphaherpesvirus 1) [µg/mL]
1 | CCC(=O)C(CCCCCCOc1ccc(SC)cc1)C(=O)CC | 3 (≈ 8.56 µM) | inactive | – | – | –
2 | CCC(=O)C(CCCCCCCCCCOc1ccc(OC)cc1Cl)C(=O)CC | 12 (≈ 28.2 µM) | – | 6 (≈ 14.1 µM) | – | –
3 | CCC(=O)C(CCCCCCOc1ccccc1Cl)C(=O)CC | 3 (≈ 8.85 µM) | – | 6 (≈ 17.7 µM) | – | –
4 | CCC(=O)C(CCCCCCOc1ccc(OC(=O)c2ccc(OC)cc2)cc1)C(=O)CC | 6 (≈ 13.2 µM) | inactive | – | – | –
5 | CCC(=O)C(CCCCCCOc1c(Cl)c(Cl)c(Cl)c(Cl)c1Cl)C(=O)CC | 12 (≈ 25.2 µM) | inactive | – | – | –
6 | CCC(=O)C(CCCCCCOc1ccccc1[N+](=O)[O-])C(=O)CC | 6 (≈ 17.2 µM) | – | 6 (≈ 17.2 µM) | – | –
7 | CCC(=O)C(CCCCCCOc1ccc(Cl)cc1)C(=O)CC | 3 (≈ 8.85 µM) | inactive | – | – | –
8 | CCC(=O)C(CCCCCCOc1ccc(OCCO)cc1Cl)C(=O)CC | 3 (≈ 7.52 µM) | – | 1.5 (≈ 3.76 µM) | – | –
9 | CCC(=O)C(CCCCCCOc1cccc(I)c1)C(=O)CC | 6 (≈ 13.9 µM) | – | 6 (≈ 13.9 µM) | – | –
10 | CCC(=O)C(CCCCCCOc1ccc(OC(C)=O)cc1Cl)C(=O)CC | 12 (≈ 30.2 µM) | inactive | – | – | –
11 | CCC(=O)C(CCCCCCOc1ccc(OC(=O)CCCN2CCOCC2)cc1)C(=O)CC | 12 (≈ 25.2 µM) | – | 12 (≈ 25.2 µM) | – | –
12 | CCC(=O)C(CCCCCCOc1ccccc1C(F)(F)F)C(=O)CC | 6 (≈ 16.1 µM) | – | 6 (≈ 16.1 µM) | – | –
13 | CCC(=O)C(CCCCCCOc1ccc(Cl)cc1Cl)C(=O)CC | – | – | 3 (≈ 8.04 µM) | – | –
14 | CCC(=O)C(CCCCOc1ccc(OC)cc1Cl)C(=O)CC | – | inactive | – | – | –
15 | CCC(=O)C(CCCCCCOc1ccc(I)cc1)C(=O)CC | 3 (≈ 6.97 µM) | – | 6 (≈ 13.9 µM) | – | –
16 | CCC(=O)C(CCCCCCOc1ccccc1I)C(=O)CC | 12 (≈ 27.9 µM) | inactive | – | – | –
17 | CCC(=O)C(CCCCCCOc1ccc([N+](=O)[O-])cc1Cl)C(=O)CC | 3 (≈ 7.82 µM) | – | 3 (≈ 7.82 µM) | – | –
18 | CCC(=O)C(CCCCCCCCOc1ccc2c(c1)OCO2)C(=O)CC | – | inactive | – | – | –
19 | CCC(=O)C(CCCCCCOc1ccc(OCc2ccccc2)cc1)C(=O)CC | 1.5 (≈ 3.65 µM) | – | 1.5 (≈ 3.65 µM) | – | –
20 | CCC(=O)C(CCCCCCOc1ccc(OC)cc1[N+](=O)[O-])C(=O)CC | 3 (≈ 7.91 µM) | – | 6 (≈ 15.8 µM) | – | –
21 | CCC(=O)C(CCCCCCOc1ccc(C(C)=O)cc1OC)C(=O)CC | – | – | 12 (≈ 31.9 µM) | – | –

Row | Structure (SMILES) | MIC (Equine rhinovirus) [µg/mL] | inhibition (Human alphaherpesvirus 2 [1]) | MIC (Human alphaherpesvirus 2 [2]) [µg/mL] | MIC (Human alphaherpesvirus 2 [3]) [µg/mL] | MIC (Human alphaherpesvirus 1) [µg/mL]
22 | CCC(=O)C(CCCCCCOc1ccc(O)cc1Cl)C(=O)CC | – | – | 6 (≈ 16.9 µM) | – | –
23 | CCC(=O)C(CCCCCCOc1ccc(OCc2ccccc2)cc1Cl)C(=O)CC | 3 (≈ 6.74 µM) | – | 3 (≈ 6.74 µM) | – | –
24 | CCC(=O)C(CCCCCCOc1ccc2c(c1)OCO2)C(=O)CC | 3 (≈ 8.61 µM) | inactive | – | – | –
25 | CCC(=O)C(CCCCCCOc1c(F)c(F)c(F)c(F)c1F)C(=O)CC | – | – | 12 (≈ 30.4 µM) | – | –
26 | CCC(=O)C(CCCCCCOc1ccc(F)cc1)C(=O)CC | 3 (≈ 9.3 µM) | – | 3 (≈ 9.3 µM) | – | –
27 | CCC(=O)C(CCCCCCCCCOc1ccc(OC)cc1Cl)C(=O)CC | 6 (≈ 14.6 µM) | – | 12 (≈ 29.2 µM) | – | –
28 | CCC(=O)C(CCCCCCOc1ccc(OC)cc1Br)C(=O)CC | 3 (≈ 7.26 µM) | – | 6 (≈ 14.5 µM) | – | –
29 | Nc1ncnc2c1ncn2[C@@H]1O[C@H](CO)[C@@H](O)[C@@H]1O [VIDARABINE] | – | – | – | 12 (≈ 44.9 µM) | 12 (≈ 44.9 µM)
30 | COc1ccc(OCCCCCCC(C(C)=O)C(C)=O)c(Cl)c1 | – | – | 12 (≈ 35.2 µM) | – | –
31 | CCC(=O)C(CCCCCCOc1ccc(C#N)cc1)C(=O)CC | – | inactive | – | – | –
32 | CCC(=O)C(CCCOc1ccc2c(c1)OCO2)C(=O)CC | – | inactive | – | – | –
33 | O=c1[nH]c(=O)n([C@H]2C[C@H](O)[C@@H](CO)O2)cc1I [IDOXURIDINE] | – | – | – | 6 (≈ 16.9 µM) | 6 (≈ 16.9 µM)
34 | CCC(=O)C(CCCCCCOc1ccc(S(N)(=O)=O)cc1)C(=O)CC | – | – | 12 (≈ 31.3 µM) | – | –
35 | CCC(=O)C(CCCCCCCOc1ccc2c(c1)OCO2)C(=O)CC | 6 (≈ 16.6 µM) | inactive | – | – | –
36 | CCC(=O)C(CCCCCCCOc1ccc(OC)cc1Cl)C(=O)CC | 3 (≈ 7.83 µM) | – | 6 (≈ 15.7 µM) | – | –
37 | CCC(=O)C(CCCCCCOc1ccc(O)cc1)C(=O)CC | 12 (≈ 37.4 µM) | – | 3 (≈ 9.36 µM) | – | –
38 | CCC(=O)C(CCCCCCOc1ccc(CC)cc1)C(=O)CC | 6 (≈ 18 µM) | – | 12 (≈ 36.1 µM) | – | –
39 | CCC(=O)C(CCCCCCOc1ccc(OC)cc1)C(=O)CC | 6 (≈ 17.9 µM) | – | 25 (≈ 74.7 µM) | – | –
40 | CCC(=O)C(CCCCCCOc1ccccc1F)C(=O)CC | 3 (≈ 9.3 µM) | – | 12 (≈ 37.2 µM) | – | –
41 | CCOC(=O)c1ccc(OCCCCCCC(C(=O)CC)C(=O)CC)cc1 | 6 (≈ 15.9 µM) | – | 3 (≈ 7.97 µM) | – | –
42 | COc1ccc(OCCCCCCC(C(=O)C(C)(C)C)C(=O)C(C)(C)C)c(Cl)c1 | – | – | 6 (≈ 14.1 µM) | – | –

Row | Structure (SMILES) | MIC (Equine rhinovirus) [µg/mL] | inhibition (Human alphaherpesvirus 2 [1]) | MIC (Human alphaherpesvirus 2 [2]) [µg/mL] | MIC (Human alphaherpesvirus 2 [3]) [µg/mL] | MIC (Human alphaherpesvirus 1) [µg/mL]
43 | CCC(=O)C(CCCCCCOc1ccc(C(=O)O)cc1)C(=O)CC | 6 (≈ 17.2 µM) | inactive | – | – | –
44 | CCC(=O)C(CCOCCOc1ccc(OC)cc1Cl)C(=O)CC | 25 (≈ 70.1 µM) | – | 12 (≈ 33.6 µM) | – | –
45 | Nc1ccn([C@@H]2O[C@H](CO)[C@@H](O)[C@@H]2O)c(=O)n1 [CYTARABINE] | – | – | – | < 3 | < 3
46 | CCC(=O)C(CCCCCCOc1ccc(Br)cc1)C(=O)CC | 3 (≈ 7.83 µM) | – | 6 (≈ 15.7 µM) | – | –
47 | CCC(=O)C(CCCCCCOc1cccc(C(F)(F)F)c1)C(=O)CC | – | inactive | – | – | –
48 | CCC(=O)C(CCCCCCOc1ccc(OCCN(CC)CC)cc1)C(=O)CC | 25 (≈ 59.6 µM) | inactive | – | – | –
49 | CCC(=O)C(CCCCCCOc1cc(Cl)cc(OC)c1)C(=O)CC | 6 (≈ 16.3 µM) | – | 12 (≈ 32.5 µM) | – | –
50 | CCC(=O)C(CCCCCCOc1cccc(N(C)C)c1)C(=O)CC | 6 (≈ 17.3 µM) | inactive | – | – | –
51 | CCC(=O)C(CCCCCCOc1c(I)cc(I)cc1I)C(=O)CC | 12 (≈ 17.6 µM) | – | 6 (≈ 8.8 µM) | – | –
52 | CCC(=O)C(CCCCCCOc1ccc(Br)cc1Cl)C(=O)CC | 3 (≈ 7.18 µM) | – | 3 (≈ 7.18 µM) | – | –
53 | CCOC(=O)C(CCCCCCOc1ccc(OC)cc1Cl)C(C)=O (configuration not stated) | 6 (≈ 16.2 µM) | inactive | – | – | –
54 | CCC(=O)C(CCCCCCOc1ccc(OC(=O)c2ccccc2)cc1)C(=O)CC | – | inactive | – | – | –
55 | CCC(=O)C(CCCCCCCCOc1ccc(OC)cc1Cl)C(=O)CC | 3 (≈ 7.56 µM) | – | 3 (≈ 7.56 µM) | – | –
56 | CCC(=O)C(CCCCCCOc1cccc([N+](=O)[O-])c1)C(=O)CC | 3 (≈ 8.59 µM) | inactive | – | – | –
57 | CCC(=O)C(CCCCCCOc1ccc(OC(=O)c2ccc(C)cc2)cc1)C(=O)CC | 12 (≈ 27.4 µM) | inactive | – | – | –
58 | CCC(=O)C(CCCCCCOc1ccccc1)C(=O)CC | 6 (≈ 19.7 µM) | – | 1.5 (≈ 4.93 µM) | – | –
59 | CCC(=O)C(CCCCCOc1ccc(OC)cc1Cl)C(=O)CC | 6 (≈ 16.9 µM) | – | 6 (≈ 16.9 µM) | – | –
60 | CCC(=O)C(CCCCCCOc1ccc(F)cc1Cl)C(=O)CC | 3 (≈ 8.41 µM) | – | 6 (≈ 16.8 µM) | – | –
61 | CCC(=O)C(CCCCOc1ccc2c(c1)OCO2)C(=O)CC | 12 (≈ 37.5 µM) | inactive | – | – | –
62 | CCC(=O)C(CCCCCOc1ccc2c(c1)OCO2)C(=O)CC | – | inactive | – | – | –
63 | CCC(=O)C(CCCCCCOc1cc(Cl)c(OC)cc1Cl)C(=O)CC | 3 (≈ 7.44 µM) | – | 6 (≈ 14.9 µM) | – | –
